Data as given in the supplement of paper PMC10307832.

How the values were obtained:
Assay in all cases: relative viability (nuclei count vs DMSO), 5 days (fraction); higher = more cells survive
[1] = tested on: NCI-H1650
Summary of the method: (§1)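 The day after seeding in 1536-well plates, lung cancer cell lines were treated by pin tool with a single drug, or with a fixed anchor-drug dose together with five library-drug doses (not always all listed) in √10 steps. After 5 days, a combined fix-and-stain solution (final 0.05% Triton X-100, 1% formaldehyde, 1 ug/ml Hoechst) was added. Nuclei counted on 4× images gave relative viability as treated counts over vehicle counts, reported as the median of duplicate plates.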

[2] = tested on: LOU-NH91
Summary of the method: as §1

[3] = tested on: NCI-H2009
Summary of the method: as §1

[4] = tested on: HCC-44
Summary of the method: as §1

[5] = tested on: NCI-H2228
Summary of the method: as §1

[6] = tested on: NCI-H838
Summary of the method: as §1

[7] = tested on: NCI-H520
Summary of the method: as §1

[8] = tested on: NCI-H727
Summary of the method: as §1

[9] = tested on: NCI-H1755
Summary of the method: as §1

[10] = tested on: HCC-78
Summary of the method: as §1

[11] = tested on: NCI-H358
Summary of the method: as §1

[12] = tested on: LK-2
Summary of the method: as §1

[13] = tested on: NCI-H2347
Summary of the method: as §1

[14] = tested on: HCC-366
Summary of the method: as §1

[15] = tested on: NCI-H2405
Summary of the method: as §1

[16] = tested on: NCI-H1355
Summary of the method: as §1

[17] = tested on: UMC-11
Summary of the method: as §1

[18] = tested on: NCI-H1734
Summary of the method: as §1

[19] = tested on: NCI-H1666
Summary of the method: as §1

[20] = tested on: BEN
Summary of the method: as §1

[21] = tested on: SW 1573
Summary of the method: as §1

[22] = tested on: 201T
Summary of the method: as §1

`CCCCCCCCCCCC1=C(O)C(=O)C=C(O)C1=O` [Embelin] + CC(=O)Nc1cccc(-n2c(=O)n(C3CC3)c(=O)c3c(Nc4ccc(I)cc4F)n(C)c(=O)c(C)c32)c1 [Trametinib] (partner 0.02 µM) was tested, and the relative viability ([1]; first compound 0.08 µM) was 0.713, the relative viability ([1]; first compound 0.8 µM) was 0.703 and the relative viability ([1]; first compound 2.53 µM) was 0.675. The relative viability ([1]; first compound 8 µM) was 0.703, the relative viability ([2]; first compound 0.08 µM) was 0.785 and the relative viability ([2]; first compound 0.8 µM) was 0.831. For the same compound, the relative viability ([2]; first compound 2.53 µM) was 0.828, the relative viability ([2]; first compound 8 µM) was 0.805 and the relative viability ([3]; first compound 0.08 µM) was 0.335. For the same compound, the relative viability ([3]; first compound 0.8 µM) was 0.306, the relative viability ([3]; first compound 2.53 µM) was 0.268 and the relative viability ([3]; first compound 8 µM) was 0.296. It also gave a relative viability ([4]; first compound 0.08 µM) of 1.04, a relative viability ([4]; first compound 0.8 µM) of 1.08 and a relative viability ([4]; first compound 2.53 µM) of 1.1. The relative viability ([4]; first compound 8 µM) was 1.08, the relative viability ([5]; first compound 0.08 µM) was 0.491 and the relative viability ([5]; first compound 0.8 µM) was 0.523. For the same compound, the relative viability ([5]; first compound 2.53 µM) was 0.609, the relative viability ([5]; first compound 8 µM) was 0.455 and the relative viability ([6]; first compound 0.08 µM) was 0.523. It also gave a relative viability ([6]; first compound 0.8 µM) of 0.705, a relative viability ([6]; first compound 2.53 µM) of 0.571 and a relative viability ([6]; first compound 8 µM) of 0.511. The relative viability ([7]; first compound 0.08 µM) was 0.689, the relative viability ([7]; first compound 0.8 µM) was 0.72 and the relative viability ([7]; first compound 2.53 µM) was 0.95. It also gave a relative viability ([7]; first compound 8 µM) of 0.705, a relative viability ([8]; first compound 0.08 µM) of 0.4 and a relative viability ([8]; first compound 0.8 µM) of 0.394. For the same compound, the relative viability ([8]; first compound 2.53 µM) was 0.39, the relative viability ([8]; first compound 8 µM) was 0.423 and the relative viability ([9]; first compound 0.08 µM) was 0.816. It also gave a relative viability ([9]; first compound 0.8 µM) of 0.75, a relative viability ([9]; first compound 2.53 µM) of 0.841 and a relative viability ([9]; first compound 8 µM) of 0.723. For the same compound, the relative viability ([10]; first compound 0.08 µM) was 0.834, the relative viability ([10]; first compound 0.8 µM) was 0.831 and the relative viability ([10]; first compound 2.53 µM) was 0.752. It also gave a relative viability ([10]; first compound 8 µM) of 0.696, a relative viability ([11]; first compound 0.08 µM) of 0.137 and a relative viability ([11]; first compound 0.8 µM) of 0.154. For the same compound, the relative viability ([11]; first compound 2.53 µM) was 0.127, the relative viability ([11]; first compound 8 µM) was 0.14 and the relative viability ([12]; first compound 0.08 µM) was 0.793. For the same compound, the relative viability ([12]; first compound 0.8 µM) was 1.02, the relative viability ([12]; first compound 2.53 µM) was 0.945 and the relative viability ([12]; first compound 8 µM) was 0.954. The relative viability ([13]; first compound 0.08 µM) was 0.307, the relative viability ([13]; first compound 0.8 µM) was 0.272 and the relative viability ([13]; first compound 2.53 µM) was 0.255. It also gave a relative viability ([13]; first compound 8 µM) of 0.316, a relative viability ([14]; first compound 0.08 µM) of 0.385 and a relative viability ([14]; first compound 0.8 µM) of 0.431. The relative viability ([14]; first compound 2.53 µM) was 0.446, the relative viability ([14]; first compound 8 µM) was 0.326 and the relative viability ([15]; first compound 0.08 µM) was 0.664. The relative viability ([15]; first compound 0.8 µM) was 0.778, the relative viability ([15]; first compound 2.53 µM) was 0.638 and the relative viability ([15]; first compound 8 µM) was 0.626. The relative viability ([16]; first compound 0.08 µM) was 0.409, the relative viability ([16]; first compound 0.8 µM) was 0.443 and the relative viability ([16]; first compound 2.53 µM) was 0.392. For the same compound, the relative viability ([16]; first compound 8 µM) was 0.418, the relative viability ([17]; first compound 0.08 µM) was 0.698 and the relative viability ([17]; first compound 0.8 µM) was 0.869. The relative viability ([17]; first compound 2.53 µM) was 0.758, the relative viability ([17]; first compound 8 µM) was 0.593 and the relative viability ([18]; first compound 0.08 µM) was 0.686. The relative viability ([18]; first compound 0.8 µM) was 0.789, the relative viability ([18]; first compound 2.53 µM) was 0.777 and the relative viability ([18]; first compound 8 µM) was 0.689. The relative viability ([19]; first compound 0.08 µM) was 0.813, the relative viability ([19]; first compound 0.8 µM) was 0.824 and the relative viability ([19]; first compound 2.53 µM) was 0.838. For the same compound, the relative viability ([19]; first compound 8 µM) was 0.91, the relative viability ([20]; first compound 0.08 µM) was 1.11 and the relative viability ([20]; first compound 0.8 µM) was 1.16. The relative viability ([20]; first compound 2.53 µM) was 0.966, the relative viability ([20]; first compound 8 µM) was 0.865 and the relative viability ([21]; first compound 0.08 µM) was 0.604. It also gave a relative viability ([21]; first compound 0.8 µM) of 0.636, a relative viability ([21]; first compound 2.53 µM) of 0.625 and a relative viability ([21]; first compound 8 µM) of 0.603. It also gave a relative viability ([22]; first compound 0.08 µM) of 0.698, a relative viability ([22]; first compound 0.8 µM) of 0.726 and a relative viability ([22]; first compound 2.53 µM) of 0.731. For the same compound, the relative viability ([22]; first compound 8 µM) was 0.731.
